Assay results reported in ChEMBL document CHEMBL1909046, “DrugMatrix in vitro pharmacology data”.

Columns and labels:
[1] = DRUGMATRIX: Purinergic P2X radioligand binding (ligand: [3H] alpha, beta-Methylene-ATP); format: cell membranes, Oryctolagus cuniculus, New Zealand albino, Urinary bladder, Membrane; conditions: Not Active = under 50% inhibition at 10 µM
[2] = DRUGMATRIX: Glutamate, NMDA, Agonism radioligand binding (ligand: [3H] CGP-39653); format: cell membranes, Rattus norvegicus, Wistar, Cerebral cortex, Membrane; conditions: Not Active = under 50% inhibition at 10 µM
[3] = target: T1, Polyunsaturated fatty acid lipoxygenase ALOX15 (Oryctolagus cuniculus, UniProt P12530); assay: biochemical; format: tissue-based, Reticulocytes;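 also: inhibition of 15-lipoxygenase enzyme activity measured with linoleic acid as the substrate; in other assays of this panel Not Active means under 50% inhibition at 10 µM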
T1 sequence (P12530 whole entry): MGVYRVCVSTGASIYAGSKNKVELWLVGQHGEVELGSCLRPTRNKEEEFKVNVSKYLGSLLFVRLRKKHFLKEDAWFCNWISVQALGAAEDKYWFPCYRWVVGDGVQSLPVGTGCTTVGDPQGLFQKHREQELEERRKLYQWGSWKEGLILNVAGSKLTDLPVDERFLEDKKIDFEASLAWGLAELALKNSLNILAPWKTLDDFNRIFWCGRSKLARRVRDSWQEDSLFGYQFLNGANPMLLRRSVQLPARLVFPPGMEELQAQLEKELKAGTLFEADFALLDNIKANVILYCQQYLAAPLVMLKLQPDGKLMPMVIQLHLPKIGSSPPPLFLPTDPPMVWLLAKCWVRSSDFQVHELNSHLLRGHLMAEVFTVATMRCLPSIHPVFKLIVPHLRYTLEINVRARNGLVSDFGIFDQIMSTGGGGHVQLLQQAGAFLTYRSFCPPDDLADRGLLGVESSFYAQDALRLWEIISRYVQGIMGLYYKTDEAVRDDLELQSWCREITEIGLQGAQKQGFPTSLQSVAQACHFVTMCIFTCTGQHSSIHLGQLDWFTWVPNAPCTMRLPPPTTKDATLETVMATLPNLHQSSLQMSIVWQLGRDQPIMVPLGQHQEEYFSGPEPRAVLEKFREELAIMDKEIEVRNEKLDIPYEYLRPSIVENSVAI

[4] = target: T2, 5-hydroxytryptamine receptor 1A (Rattus norvegicus, UniProt P19327); format: cell membranes, CHO-K1, Membrane; conditions: for Ki: read-out: Ki; as to all read-outs here: in other assays of this panel Not Active means under 50% inhibition at 10 µM
T2 sequence (P19327 whole entry): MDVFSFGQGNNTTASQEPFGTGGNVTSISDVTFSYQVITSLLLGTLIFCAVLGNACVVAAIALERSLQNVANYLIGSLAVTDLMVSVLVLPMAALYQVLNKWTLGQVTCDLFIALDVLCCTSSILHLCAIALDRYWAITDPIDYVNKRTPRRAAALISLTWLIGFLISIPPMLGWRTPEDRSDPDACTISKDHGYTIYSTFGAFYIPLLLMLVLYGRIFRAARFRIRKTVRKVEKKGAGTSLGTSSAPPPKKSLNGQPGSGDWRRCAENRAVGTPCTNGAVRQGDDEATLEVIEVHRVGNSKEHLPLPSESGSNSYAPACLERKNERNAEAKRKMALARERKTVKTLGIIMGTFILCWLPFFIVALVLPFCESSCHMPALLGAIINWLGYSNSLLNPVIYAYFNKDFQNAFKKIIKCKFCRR

[5] = target: Cannabinoid receptor 1 (Homo sapiens, UniProt P21554); format: cell membranes, Chem-1, Membrane; conditions: chem-1; also: in other assays of this panel Not Active means under 50% inhibition at 10 µM
[6] = target: T3, Cytochrome P450 2A6 (Homo sapiens, UniProt P11509); conditions: bti-tn-5b1-4; also: in other assays of this panel Not Active means under 50% inhibition at 10 µM
T3 sequence (P11509 whole entry): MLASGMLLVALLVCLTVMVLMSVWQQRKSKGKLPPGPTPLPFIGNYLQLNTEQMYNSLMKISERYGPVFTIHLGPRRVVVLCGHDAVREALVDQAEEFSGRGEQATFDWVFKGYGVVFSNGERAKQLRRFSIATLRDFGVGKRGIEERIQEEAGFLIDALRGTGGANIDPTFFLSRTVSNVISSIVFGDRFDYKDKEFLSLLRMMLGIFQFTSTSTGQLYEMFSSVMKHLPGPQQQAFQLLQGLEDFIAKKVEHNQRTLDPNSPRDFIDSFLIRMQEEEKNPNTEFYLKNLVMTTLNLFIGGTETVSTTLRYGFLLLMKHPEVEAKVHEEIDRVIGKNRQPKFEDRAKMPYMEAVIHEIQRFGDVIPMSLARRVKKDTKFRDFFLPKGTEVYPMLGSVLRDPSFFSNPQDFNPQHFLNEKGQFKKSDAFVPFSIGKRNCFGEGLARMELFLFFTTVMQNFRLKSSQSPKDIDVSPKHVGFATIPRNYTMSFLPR

[7] = target: Kappa-type opioid receptor (Homo sapiens, UniProt P41145); assay: DRUGMATRIX: Opiate kappa (OP2, KOP) radioligand binding (ligand: [3H] Diprenorphine); format: cell membranes, HEK293, Membrane; conditions: Not Active = under 50% inhibition at 10 µM
Sequence of Kappa-type opioid receptor (P41145 whole entry): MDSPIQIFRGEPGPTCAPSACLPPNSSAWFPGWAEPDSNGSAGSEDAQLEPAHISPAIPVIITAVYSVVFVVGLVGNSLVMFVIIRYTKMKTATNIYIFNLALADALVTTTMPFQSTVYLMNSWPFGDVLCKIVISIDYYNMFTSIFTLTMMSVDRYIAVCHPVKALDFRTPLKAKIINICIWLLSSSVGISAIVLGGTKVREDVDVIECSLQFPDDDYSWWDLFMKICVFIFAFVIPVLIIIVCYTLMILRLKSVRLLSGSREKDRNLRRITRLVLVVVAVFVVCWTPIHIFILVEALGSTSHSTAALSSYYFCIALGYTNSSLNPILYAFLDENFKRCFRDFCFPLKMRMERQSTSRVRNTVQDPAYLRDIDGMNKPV

Sequence of Cannabinoid receptor 1 (P21554 whole entry): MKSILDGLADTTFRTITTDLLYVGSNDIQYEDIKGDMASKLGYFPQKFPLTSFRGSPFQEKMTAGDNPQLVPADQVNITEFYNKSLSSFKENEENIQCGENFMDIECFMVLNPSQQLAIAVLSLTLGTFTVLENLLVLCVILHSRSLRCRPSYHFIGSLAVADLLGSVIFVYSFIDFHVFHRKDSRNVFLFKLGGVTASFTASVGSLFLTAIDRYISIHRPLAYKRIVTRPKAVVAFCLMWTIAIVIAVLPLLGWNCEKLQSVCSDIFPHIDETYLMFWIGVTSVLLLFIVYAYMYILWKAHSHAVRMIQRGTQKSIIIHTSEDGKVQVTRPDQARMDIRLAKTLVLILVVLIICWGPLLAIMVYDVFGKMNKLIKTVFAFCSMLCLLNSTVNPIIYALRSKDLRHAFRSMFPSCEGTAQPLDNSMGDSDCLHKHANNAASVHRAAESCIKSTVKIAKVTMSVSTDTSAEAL

CC12CCC(CC1)C(C)(C)O2 [EUCALYPTOL]
Not Active: IC50 [1] | Ki [1] | IC50 [2] | Ki [2] | IC50 ([3]; reticulocytes) | IC50 ([4]; cho-k1) | IC50 [5] | IC50 [6] | Ki [6] | IC50 ([7]; hek293)

C[N+](C)(C)CCOC(N)=O.[Cl-] [CARBACHOL]
Not Active: IC50 [1] | Ki [1] | IC50 [2] | Ki [2] | IC50 ([3]; reticulocytes) | IC50 ([4]; cho-k1) | IC50 [5] | IC50 [6] | Ki [6] | IC50 ([7]; hek293)

NS(=O)(=O)c1cc(C(=O)O)c(NCc2ccco2)cc1Cl [FUROSEMIDE]
Not Active: IC50 [1] | Ki [1] | IC50 [2] | Ki [2] | IC50 ([3]; reticulocytes) | IC50 ([4]; cho-k1) | IC50 [5] | IC50 [6] | Ki [6] | IC50 ([7]; hek293)

CC(C)NCC(O)COc1ccc(CC(N)=O)cc1 (stereo not given) [ATENOLOL]
Not Active: IC50 [1] | Ki [1] | IC50 [2] | Ki [2] | IC50 ([3]; reticulocytes) | IC50 ([4]; cho-k1) | IC50 [5] | IC50 [6] | Ki [6] | IC50 ([7]; hek293)

Oc1ncnc2[nH]ncc12 [ALLOPURINOL]
Not Active: IC50 [1] | Ki [1] | IC50 [2] | Ki [2] | IC50 ([3]; reticulocytes) | IC50 ([4]; cho-k1) | IC50 [5] | IC50 [6] | Ki [6] | IC50 ([7]; hek293)

NCC(CC(=O)O)c1ccc(Cl)cc1 (stereo not given) [BACLOFEN]
Not Active: IC50 [1] | Ki [1] | IC50 [2] | Ki [2] | IC50 ([3]; reticulocytes) | IC50 ([4]; cho-k1) | IC50 [5] | IC50 [6] | Ki [6] | IC50 ([7]; hek293)

O=C1CN(/N=C/c2ccc([N+](=O)[O-])o2)C(=O)N1 [NITROFURANTOIN]
Not Active: IC50 [1] | Ki [1] | IC50 [2] | Ki [2] | IC50 ([3]; reticulocytes) | IC50 ([4]; cho-k1) | IC50 [5] | IC50 [6] | Ki [6] | IC50 ([7]; hek293)

CC12CCC(CC1=O)C2(C)C (stereo not given) [CAMPHOR]
Not Active: IC50 [1] | Ki [1] | IC50 [2] | Ki [2] | IC50 ([3]; reticulocytes) | IC50 ([4]; cho-k1) | IC50 [5] | IC50 [6] | Ki [6] | IC50 ([7]; hek293)

Cc1c(N)nc([C@H](CC(N)=O)NC[C@H](N)C(N)=O)nc1C(=O)N[C@H](C(=O)N[C@H](C)[C@@H](O)[C@H](C)C(=O)N[C@H](C(=O)NCCc1nc(-c2nc(C(=O)NCCC[S+](C)C)cs2)cs1)[C@@H](C)O)[C@@H](O[C@@H]1O[C@@H](CO)[C@@H](O)[C@H](O)[C@@H]1O[C@H]1O[C@H](CO)[C@@H](O)[C@H](OC(N)=O)[C@@H]1O)c1c[nH]cn1.[Br-] [BLEOMYCIN A2]
Not Active: IC50 [1] | Ki [1] | IC50 [2] | Ki [2] | IC50 ([3]; reticulocytes) | IC50 ([4]; cho-k1) | IC50 [5] | IC50 [6] | Ki [6] | IC50 ([7]; hek293)

CN(Cc1cc(Br)cc(Br)c1N)C1CCCCC1 [BROMHEXINE]
Not Active: IC50 [1] | Ki [1] | IC50 [2] | Ki [2] | IC50 ([3]; reticulocytes) | IC50 ([4]; cho-k1) | IC50 [5] | IC50 [6] | Ki [6] | IC50 ([7]; hek293)

CC(CN1c2ccccc2Sc2ccccc21)N(C)C (stereo not given) [PROMETHAZINE]
Not Active: IC50 [1] | Ki [1] | IC50 [2] | Ki [2] | IC50 ([3]; reticulocytes) | IC50 [5] | IC50 [6] | Ki [6] | IC50 ([7]; hek293)
2600 nM: IC50 ([4]; read-out: IC50)
1480 nM: Ki [4]

NC(N)=Nc1nc(CSCCC(N)=NS(N)(=O)=O)cs1 [FAMOTIDINE]
Not Active: IC50 [1] | Ki [1] | IC50 [2] | Ki [2] | IC50 ([3]; reticulocytes) | IC50 ([4]; cho-k1) | IC50 [5] | IC50 [6] | Ki [6] | IC50 ([7]; hek293)

CC(C)(c1ccc(O)cc1)c1ccc(O)cc1 [BISPHENOL A]
1300 nM: IC50 ([3]; read-out: IC50)
Not Active: IC50 [1] | Ki [1] | IC50 [2] | Ki [2] | IC50 ([4]; cho-k1) | IC50 [5] | IC50 [6] | Ki [6] | IC50 ([7]; hek293)

c1ccc2sc(SSc3nc4ccccc4s3)nc2c1 [BENZOTHIAZYL DISULFIDE]
1240 nM: IC50 ([7]; read-out: IC50)
Not Active: IC50 [1] | Ki [1] | IC50 [2] | Ki [2] | IC50 ([3]; reticulocytes) | IC50 [5] | IC50 [6] | Ki [6]
747 nM: IC50 ([4]; read-out: IC50)
497 nM: Ki [7]
427 nM: Ki [4]

CC(=O)Nc1ccc2c(c1)Cc1ccccc1-2 [2-ACETYLAMINOFLUORENE]
Not Active: IC50 [1] | Ki [1] | IC50 [2] | Ki [2] | IC50 ([3]; reticulocytes) | IC50 ([4]; cho-k1) | IC50 [5] | IC50 [6] | Ki [6] | IC50 ([7]; hek293)

Cc1cc(C(C)(C)C)c(O)c(C)c1CC1=NCCN1 [OXYMETAZOLINE]
3.21 nM: Ki [4]
5.61 nM: IC50 ([4]; read-out: IC50)
Not Active: IC50 [1] | Ki [1] | IC50 [2] | Ki [2] | IC50 ([3]; reticulocytes) | IC50 [5] | IC50 [6] | Ki [6] | IC50 ([7]; hek293)

c1ccc(Cn2ccnc2)cc1
Not Active: IC50 [1] | Ki [1] | IC50 [2] | Ki [2] | IC50 ([3]; reticulocytes) | IC50 ([4]; cho-k1) | IC50 [5] | IC50 [6] | Ki [6] | IC50 ([7]; hek293)

CC(N)Cc1c[nH]c2ccc(OCc3cccs3)cc12 (stereo not given) [BW-723C86]
Not Active: IC50 [1] | Ki [1] | IC50 [2] | Ki [2] | IC50 ([3]; reticulocytes) | IC50 [5] | IC50 [6] | Ki [6] | IC50 ([7]; hek293)
644 nM: Ki [4]
1130 nM: IC50 ([4]; read-out: IC50)

CCO [ALCOHOL]
Not Active: IC50 [1] | Ki [1] | IC50 [2] | Ki [2] | IC50 ([3]; reticulocytes) | IC50 ([4]; cho-k1) | IC50 [5] | IC50 [6] | Ki [6] | IC50 ([7]; hek293)

CC[C@H]1OC(=O)[C@H](C)[C@@H](O[C@H]2C[C@@](C)(OC)[C@@H](O)[C@H](C)O2)[C@H](C)[C@@H](O[C@@H]2O[C@H](C)C[C@H](N(C)C)[C@H]2O)[C@](C)(O)C[C@@H](C)C(=O)[C@H](C)[C@@H](O)[C@]1(C)O [ERYTHROMYCIN]
Not Active: IC50 [1] | Ki [1] | IC50 [2] | Ki [2] | IC50 ([3]; reticulocytes) | IC50 ([4]; cho-k1) | IC50 [5] | IC50 [6] | Ki [6] | IC50 ([7]; hek293)

Nc1nc(N)c2nc(CNc3ccc(C(=O)N[C@@H](CCC(=O)O)C(=O)O)cc3)cnc2n1 [AMINOPTERIN]
Not Active: IC50 [1] | Ki [1] | IC50 [2] | Ki [2] | IC50 ([3]; reticulocytes) | IC50 ([4]; cho-k1) | IC50 [5] | IC50 [6] | Ki [6] | IC50 ([7]; hek293)
